One may read the MIC as the lowest concentration that inhibits growth of the organism.

The source of these data is patent publication US4000261A, “5-Epi-4,6-di-O-(aminoglycosyl)-2-deoxystreptamines, methods for their manufacture and intermediates useful therein, methods for their use as antibacterial agents and compositions useful therefor” (priority 1975, dated 1976).

The structures appear in SMILES notation. Values after ≈ are worked out from the molar mass of the structure shown. Where two headings read alike, the source gives them in different places.

Format in all cases: cell-based
Assay [1] concerns gram-positive and gram-negative bacteria. The assay can be described thus: antibacterial spectrum and relative activity in vitro. The settings on record: for antibacterial spectrum in vitro: compared with gentamicin C1, C1a and C2.
For assay [2], the system named is gram positive bacteria (e.g. Staphylococcus aureus) and gram negative bacteria (e.g. Escherichia coli and Pseudomonas aeruginosa). Nature of the assay: antibacterial activity determined by standard dilution tests. The note with it: including bacteria resistant to the parent compounds.
The next assay concerns Klebsiella pneumoniae. Nature of the assay: in vitro minimal inhibitory concentration (MIC), standard tube dilution method. The text has this:
(§1) In Table 1, set forth below is shown the in vitro minimal inhibitory concentration (MIC) of gentamicin C2a against representative gram-positive and gram-negative bacteria. The results are derived using the standard tube dilution method in Mueller-Hinton broth.
(§2) In Table 2, set forth below is shown the in vitro minimal inhibitory concentration (MIC) of gentamicin C2b against representative gram-positive and gram-negative bacteria. The results are derived using the standard tube dilution method in Mueller-Hinton broth.

The subject of a further assay is Staphylococcus aureus. The assay is described as above. The note with it: Mueller-Hinton broth.
Source text: as §1, §2

The next assay has as its system Bacillus subtilis 663. The description is as above. The settings on record: strain 663, Mueller-Hinton broth.
Source text: as §1, §2

In a further assay the test system is Escherichia coli. Described as above.
Source text: as §1, §2

In the next assay the test system is Salmonella typhi. B. The assay is described as above. The settings on record: Salmonella enterica.
Source text: as §1, §2

In the next assay the test system is Pseudomonas aeruginosa. The assay is described as above.
Source text: as §1, §2

The mark [3] stands for this setting: strain 17, Mueller-Hinton broth, read-out: MIC.
Setting [4] is: ATCC10536, strain ATCC 10536, Mueller-Hinton broth.
The mark [5] stands for this setting: strain JR66, gentamicin resistant, Mueller-Hinton broth.
The mark [6] stands for this setting: strain LA 290/R55, gentamicin resistant, Mueller-Hinton broth.
The mark [7] stands for this setting: strain 20, Mueller-Hinton broth.
Setting [8] is: strain 762, Mueller-Hinton broth.
Setting [9] is: strain 3223, Mueller-Hinton broth.
Where [10] appears, read: strain St 138, gentamicin resistant, Mueller-Hinton broth.
Setting [11] is: strain Travers, gentamicin resistant, Mueller-Hinton broth.

Turning to `CCN[C@@H]1C[C@H](N)[C@@H](O[C@H]2OC(CN)=CC[C@H]2N)[C@@H](O)[C@H]1O[C@H]1OC[C@](C)(O)[C@H](NC)[C@H]1O` [1-N-ethyl-5-episisomicin], in assay [1] (general statement, some compared with parent antibiotics), the “antibacterial activity / spectrum” value is “enhanced antibacterial activity”.
As to `CN[C@@H]1[C@@H](O)[C@@H](O[C@@H]2[C@H](O)[C@H](O[C@H]3OC(CN)=CC[C@H]3N)[C@@H](N)C[C@H]2N)OC[C@@H]1O` [5-epi-Antibiotic 66-40D], the “antibacterial activity in standard dilution tests” value in assay [2] is “active against gram positive bacteria (e.g. Staphylococcus aureus) and gram negative bacteria (e.g. Escherichia coli and Pseudomonas aeruginosa)”.
Take `CN[C@@H]1[C@@H](O)[C@@H](O[C@@H]2[C@@H](O)[C@H](O[C@H]3O[C@H]([C@H](C)N)CC[C@H]3N)[C@@H](N)C[C@H]2N)OC[C@]1(C)O` [gentamicin C2a]: the minimum inhibitory concentration (MIC) in the assay with Klebsiella pneumoniae was 17.5 µg/mL (≈ 37.8 µM); in the assay on Klebsiella pneumoniae (setting [3]), 0.8 µg/mL (≈ 1.73 µM); in the assay with Staphylococcus aureus (Staphylococcus aureus, strain 6538P, read-out: MIC) it was 0.3 µg/mL (≈ 0.647 µM); against Staphylococcus aureus (strain 59N), 0.3 µg/mL (≈ 0.647 µM); in the assay on Staphylococcus aureus (strain Ziegler), 0.3 µg/mL (≈ 0.647 µM); against Bacillus subtilis 663 it was 0.1 µg/mL (≈ 0.216 µM). The minimal inhibitory concentration (MIC) against Escherichia coli (setting [4]) came out at 0.3 µg/mL (≈ 0.647 µM); with Escherichia coli (setting [5]), 7.5 µg/mL (≈ 16.2 µM); with Escherichia coli (setting [6]) it was 17.5 µg/mL (≈ 37.8 µM); with Salmonella typhi. B., 0.3 µg/mL (≈ 0.647 µM); in the assay with Pseudomonas aeruginosa (setting [7]), 3 µg/mL (≈ 6.47 µM); in the assay on Pseudomonas aeruginosa (setting [8]), 0.8 µg/mL (≈ 1.73 µM). Moreover, the MIC against Pseudomonas aeruginosa (setting [9]) was 0.3 µg/mL (≈ 0.647 µM); against Pseudomonas aeruginosa (setting [10]), more than 25 µg/mL; in the assay on Pseudomonas aeruginosa (setting [11]), more than 25 µg/mL. Also, the “activity relative to the gentamicin C complex” value in assay [1] (as the free base, % of the activity of the gentamicin C complex) was “about 74%”. For the same molecule, in assay [1], the “antibacterial spectrum in vitro” value is “substantially the same antibacterial spectrum in vitro as do gentamicin C1, C1a and C2”.
In the case of `CNC[C@@H]1CC[C@@H](N)[C@@H](O[C@H]2[C@H](O)[C@@H](O[C@H]3OC[C@](C)(O)[C@H](NC)[C@H]3O)[C@H](N)C[C@@H]2N)O1` [gentamicin C2b], the MIC in the assay with Klebsiella pneumoniae (setting [3]) is 0.075 µg/mL (≈ 0.162 µM); in the assay on Klebsiella pneumoniae (strain 3694, gentamicin resistant, Mueller-Hinton broth, read-out: MIC), 17.5 µg/mL (≈ 37.8 µM); in the assay on Staphylococcus aureus (Staphylococcus aureus, strain wood, read-out: MIC), 0.075 µg/mL (≈ 0.162 µM); against Staphylococcus aureus (strain 59N), 0.075 µg/mL (≈ 0.162 µM); against Staphylococcus aureus (strain Ziegler), 0.075 µg/mL (≈ 0.162 µM); against Bacillus subtilis 663, less than 0.05 µg/mL. For the same molecule, the MIC was 0.075 µg/mL (≈ 0.162 µM) against Escherichia coli (setting [4]); 7.5 µg/mL (≈ 16.2 µM) against Escherichia coli (setting [5]); more than 25 µg/mL against Escherichia coli (setting [6]); 0.3 µg/mL (≈ 0.647 µM) against Salmonella typhi. B.; 0.3 µg/mL (≈ 0.647 µM) in the assay on Pseudomonas aeruginosa (setting [7]); 0.3 µg/mL (≈ 0.647 µM) in the assay on Pseudomonas aeruginosa (setting [8]). Also, the minimal inhibitory concentration (MIC) is 0.075 µg/mL (≈ 0.162 µM) in the assay with Pseudomonas aeruginosa (setting [9]), 17.5 µg/mL (≈ 37.8 µM) against Pseudomonas aeruginosa (setting [10]) and more than 25 µg/mL in the assay on Pseudomonas aeruginosa (setting [11]). Besides, the “antibacterial spectrum in vitro” value in assay [1] is “substantially the same antibacterial spectrum in vitro as do gentamicin C1, C1a and C2”.
